Results taken from patent US12564188B2, “Hydrogel beads for controlled uptake and release of cryoprotective agents” (The General Hospital Corporation, priority 2020, dated 2026).
Like-named read-outs stand apart in the source and are kept apart here.

Experiments:
[1] = DMSO release from hydrogel beads into saline, osmolality by micro-osmometer; assay type: physicochemical; conditions: room temperature, 5.0 μL beads incubated in 15% DMSO
Protocol: Here, beads 1-5 mm in diameter were synthesized using microfluidic droplet generation and 2% polyacrylamide/bis-acrylamide, following standard oil emulsion methods^43, and beads were synthesized using calcium alginate. Uniform calcium-alginate hydrogel beads were synthesized by dripping 5% alginate from a needle with a surrounding nitrogen gas sheath into a CaCl2 bath. Bead size and uniformity was confirmed by imaging. 5.0 μL beads were incubated for four hours in a 15% DMSO solution, then strained, blotted, and weighed. Beads were then suspended in saline for several minutes under gentle mixing, and the rate of DMSO release was measured over time by sampling the solution and measuring osmolality by micro-osmometer. The rate of release was compared with numerical simulations of diffusion based on the average bead size (FIG. 3). The diffusion coefficient of DMSO within the gel was measured to be 1.0×10^−5 cm^2s^−1 at room temperature, matching expected values^41,42.
Expected outcomes and alternative approaches: The key metric of success is the ability to reliably add and then remove CPA from a given sample solution at tunable rates which are predicted by modeling. Bead geometry alone is sufficient to achieve gradual CPA uptake and release. The sample recovery was about 96% without any dilution in these experiments.

[2] = tested on: patients; conditions: cited from earlier work
[3] = DMSO implicated, co-injection with CAR T cells

In the case of `C[S+](C)[O-]` [DMSO, dimethyl sulfoxide], the “diffusion coefficient of DMSO within the gel” value [1] is listed as 1.0×10^−5 cm^2s^−1, the aphasia [2, 3] is listed as 18% and the delirium [2, 3] is listed as 29%. The encephalopathy [2, 3] was 34%, the tremors [2, 3] was 29% and the “patients experiencing nausea and vomiting” value ([2]; co-injection of 10-20 mL DMSO along with CAR T cells) was 40-60%. For the same molecule, the “patients experiencing nausea and vomiting” value ([2]; co-injection of approximately 10 mL DMSO along with thawed CAR T cell product) was “up to 60%”.
